Reference: patent publication US20080118918A1, “Compositions and Methods For Determining and Predicting Treatment Responses For Depression and Anxiety” (THE REGENTS of the University of California, priority 2004, published 2008)

Columns and labels:
[1] = tested on: depressed Mexican-Americans; test: prospective randomized, placebo lead-in, double-blind treatment of fluoxetine or desipramine for eight weeks; HAM-A and HAM-D changes stratified by CRHR1 GAG haplotype; assay type: in vivo, human; settings: fluoxetine 10 mg-40 mg/day vs desipramine 50 mg-200 mg/day, 8 weeks
Source text: The primary outcome measures of the association analysis were the changes in the Hamilton rating scales for anxiety (HAM-A) and depression (HAM-D).
All patients were followed weekly and assessed for changes in the Hamilton rating scales for anxiety (HAM-A) and depression (HAM-D). Inclusion criteria in the study included a HAM-D of 18 or higher. Patients were classified into a high anxiety (HA) group if their HAM-A score was 18 or higher and in a low anxiety (LA) group if their HAM-A score was less than 18.
The study population consisted of 233 depressed subjects enrolled in an ongoing pharmacogenetic study of antidepressant treatment response to desipramine or fluoxetine. Data from the first 80 subjects who completed the protocol and for whom we had available genetic data are reported herein. […] All patients are Mexican-American men and women ages 21-68, with a current episode of major depression as diagnosed by the DSM-IV. In this study, all Mexican-American subjects had at least three grandparents born in Mexico. […]
Eighty subjects were divided into a low anxiety group (LA) with HAM-A score less than 18 at screening and a high anxiety group (HA), with HAM-A scores that were 18 or higher at screening. […] Demographics of the LA group and HA group were assessed for homogeneity using χ^2 or t-tests, as appropriate.

CNS CRH gene expression = settings: in vivo; cited from earlier work

Row | Structure (SMILES) | antidepressant effectiveness, comparison of the two drugs [1] | effects on downregulating CNS CRH gene expression (CNS CRH gene expression)
1 | CNCCC(Oc1ccc(C(F)(F)F)cc1)c1ccccc1 (stereo not shown) [fluoxetine] | no differences between the two drugs in terms of antidepressant effectiveness have been observed | equal effects on downregulating CNS CRH gene expression
2 | CNCCCN1c2ccccc2CCc2ccccc21 [desipramine] | no differences between the two drugs in terms of antidepressant effectiveness have been observed | equal effects on downregulating CNS CRH gene expression
